The text below walks through data of patent publication US20100113484A1, “TREATING AGENT OF UROPATHY” (ASKA PHARMACEUTICAL CO., LTD., priority 2006, published 2010).

Assay [1] has as its target T1, human recombinant PDE9 protein (Homo sapiens, UniProt O76083).
T1 construct: made in house; host or cells: COS-1 cells, transient transfection with pcDNA 3.1 (+); supernatant of the homogenate, not purified
The assay can be described thus: Measurement of PDE9-inhibiting activity ([3H]-cGMP hydrolysis). The format is biochemical. How it is done:
Based on the base sequence of hsPDE9A1 registered with GenBank database (accession No.: AF048837), hsPDE9A1 fragment was amplified by polymerase chain reaction under the following conditions, using the following sequence (Amasham Pharmacia Biotech) as the primer and Human Prostate […] cDNA library (CLONTECH) as the template DNA, with Pfu Turbo DNA polymerase ([…]):
PCR condition: [95° C., 5 min]×1 cycle, [(95° C., 1 min), (58° C., 2 min), (72° C., 3 min)]×25 cycles, [72° C., 10 min]×1 cycle
Thus obtained hsPDE9A1 fragment was given a restricted enzymatic treatment with NheI and NotI, and thereafter inserted into pcDNA 3.1 (+) expression vector (Invitrogen) to let it serve as a human PDE9 expression vector.
Human PDE9 expression vector-transformed Escherichia coli was mass incubated to produce a large amount of human PDE9 expression vector, which was transiently transfected into COS-1 cells, with LIPOFECTAMINE 2000 Reagent (GIBCO). The cells were homogenized in ice-cooled buffer A (40 mmol/L Tris-HCl, pH7.5, 15 mmol/L benzamidine, 15 mmol/L 2-mercaptoethanol, 1 μg/mL Pepstatin A, 1 μg/mL Leupeptin, 5 mmol/L EDTA) and centrifuged at 4° C., 14,000×g for 10 minutes. The supernatant was isolated to provide human recombinant PDE9 protein solution.
This mixed solution was incubated at 30° C. for 30 minutes and the enzymatic reaction of PDE9 was terminated by heating the system in boiling water for 90 seconds. Returning the system to room temperature, 50 μL of Snake venom (SIGMA: 1 mg/mL) was added, followed by 10 minutes' incubation at 30° C., to convert the [^3H]-5′-GMP produced in the previous reaction to [^3H]-guanosine. […] Thereafter [^3H]-guanosine was eluted with 3 mL of 3 mol/L aqueous ammonia and its radiation activity was measured with liquid scintillation counter.
PDE9 inhibition of the tested compound can be calculated by the following formula: […]
From the percent inhibition at various concentration levels of each tested compound, its IC50 value against PDE9 can be determined.

The target of assay [2] is T2, human recombinant PDE5 protein (Homo sapiens, UniProt O76074).
T2 construct: made in house; host or cells: COS-1 cells, transient transfection with pcDNA 3.1 (+); supernatant of the homogenate, not purified
The assay can be described thus: Measurement of PDE5-inhibiting activity. The format is biochemical. Particulars: Tables A and C; read-out: Inhibiting Activity (IC50 value) PDE5. On the procedure:
PCR condition: [94° C., 2 min]×1 cycle, [(94° C., 30 sec), (65° C., 30 sec), (68° C., 3 min)]×25 cycles, [68° C., 6 min]×1 cycle
Thus obtained hsPDE5A1 fragment was given a restricted enzymatic treatment with XBaI and EcoRI, and thereafter inserted into pcDNA 3.1 (+) expression vector (Invitrogen) to let it serve as a human PDE5 expression vector.
Human PDE5 expression vector-transformed Escherichia coli was mass incubated to produce a large amount of human PDE5 expression vector, which was transiently transfected into COS-1 cells, with LIPOFECTAMINE 2000 Reagent (GIBCO). The cells were homogenized in ice-cooled buffer A and centrifuged at 4° C., 14,000×g for 10 minutes. The supernatant was isolated to provide human recombinant PDE5 protein solution.

Assay [3] relates to partial urethra obstruction model in guinea pigs. The assay is described as follows: Dysuria pathological model: partial urethra obstruction model, cystometry. The format is in vivo, Hartley female guinea pigs. Particulars: guinea pig, i.v., 1 mg/kg. How it is done: Three-four weeks old Hartley female guinea pigs (Japan SLC, Inc.) were given celiotomy under anesthesia with pentobarbital (30 mg/kg i.p.) and in their urethra to the peripheral side by 1-2 mm from the bladder neck, each a polyethylene tube of 1.4 mm in width and 2.0 mm in inner diameter was placed. After closing the wound, the guinea pigs were bred for at least 3 weeks to produce partial urethra obstruction model in guinea pigs in which occurrence of intravesical pressure rise not accompanied by micturition (uninhibited contraction) and residual urine were observed.
The model was catheterized under anesthesia with urethane (1 g/kg i.p.) at the apex of urinary bladder and right jugular vein for cystometrography and intravenous administration, respectively. The other end of the bladder catheter was connected to a pressure transducer and infusion pump via a three way stop-cock, and physiological saline was continuously infused into the bladder through the infusion pump at a rate of 0.4 mL/min to induce micturition reflex. Immediately after the micturition reflex was induced, infusion of physiological saline into the bladder was stopped. The intravesical pressure at the time the micturition reflex was induced was measured with the pressure transducer, and the obtained cystometrogram was recorded with pen recorder. The urine voided was collected with disposable type weighing dish and its weight was measured. Further the physiological saline remained in the bladder was sucked with syringe via the bladder catheter and the residual urine volume was measured. The operations of suspending the infusion of physiological saline upon induction of micturition reflex, and about 1 minute thereafter resuming the infusion of physiological saline to induce micturition reflex were repeated plural times (generally 4 times) to stabilize the micturition reflex.
After stabilizing the micturition reflex, a compound solution (prepared by dissolving the compound or methanesulfonic acid salt thereof in DMSO and diluting it with physiological saline or distilled water) or physiological saline was administered into the vein at a volume of 10 mL/kg over 4 minutes, and simultaneously the above-described micturition reflex operations were repeated until 30 minutes passed after initiation of the administration, while measuring the intravesical pressure and the volumes of micturition and residual urine. Also the frequency of uninhibited contraction occurrence during the above-described operations was recorded.

Setting [4] is: Tables A and C, read-out: Inhibiting Activity (IC50 value) PDE9.
Where [5] appears, read: Table B, read-out: Inhibiting Activity IC50 PDE9.

Like-named read-outs stand apart in the source and are kept apart here. Some results are limits rather than exact numbers.

T1 sequence (O76083 whole entry): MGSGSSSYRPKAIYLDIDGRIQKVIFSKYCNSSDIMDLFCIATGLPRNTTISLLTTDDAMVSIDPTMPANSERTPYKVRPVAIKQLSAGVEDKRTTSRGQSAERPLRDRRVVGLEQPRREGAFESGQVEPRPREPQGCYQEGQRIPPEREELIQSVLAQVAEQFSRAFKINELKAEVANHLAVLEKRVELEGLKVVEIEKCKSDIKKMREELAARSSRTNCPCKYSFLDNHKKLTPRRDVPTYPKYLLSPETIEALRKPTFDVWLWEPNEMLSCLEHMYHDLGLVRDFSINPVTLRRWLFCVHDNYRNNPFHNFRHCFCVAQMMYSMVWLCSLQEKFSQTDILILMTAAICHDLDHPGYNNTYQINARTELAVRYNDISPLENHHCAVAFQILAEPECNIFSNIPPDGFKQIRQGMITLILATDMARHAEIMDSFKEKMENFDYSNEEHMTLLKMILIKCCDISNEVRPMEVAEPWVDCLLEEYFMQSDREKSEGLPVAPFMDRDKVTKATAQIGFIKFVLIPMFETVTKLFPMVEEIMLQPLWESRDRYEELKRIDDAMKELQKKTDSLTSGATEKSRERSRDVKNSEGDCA

`Cc1c(C(=O)O)sc2nc(Cc3ccc(F)c(Cl)c3)[nH]c(=S)c12` [A-29, 2-(3-Chloro-4-fluorobenzyl)-5-methyl-4-thioxo-3,4-dihydrothieno[2,3-d]pyrimidine-6-carboxylic acid]: the IC50 in assay [1] (setting [4]) is 7 nM; in assay [2], 495 nM.
With “2-(3-Chloro-4-fluorobenzyl)-5-methyl-4-oxo-3,4-dihydrothieno-[2,3-d]pyrimidine-6-carboxylic acid [A-10]”, the figures for the concentration for half-maximal inhibition (IC50) in assay [1] (setting [4]) and in assay [2] were 38 nM and 3420 nM, respectively.
As for `O=C(c1cc2[nH]c(=O)c3cnc(C4CCCCC4)n3c2cc1Cl)N1CCN(CCO)CC1` [C-6, 1-[(8-Chloro-1-cyclohexyl-4-oxo-4,5-dihydroimidazo[1,5-a]-quinoxalin-7-yl)carbonyl]-4-(2-hydroxyethyl)piperazine], the half-inhibitory concentration (IC50) in assay [1] (setting [4]) was 8 nM; in assay [2] it was 7540 nM.
Regarding `COc1cccc(Cc2nc3cc(C(=O)O)ccc3c(=O)[nH]2)c1` [B-5, 2-(3-Methoxybenzyl)-4-oxo-3,4-dihydroquinazoline-7-carboxylic acid], in assay [1] (Table B), the “Inhibiting Activity inhibition ratio at 1 μM PDE9” value is given as “inhibition ratio = 41%”.
With `O=C(O)c1cc2c(=S)[nH]c(Cc3ccc(Cl)c(Cl)c3)nc2s1` [A-33, 2-(3,4-Dichlorobenzyl)-4-thioxo-3,4-dihydrothieno[2,3-d]-pyrimidine-6-carboxylic acid], the results for the IC50 in assay [1] (setting [4]) and in assay [2] were 5 nM and 721 nM, respectively.
With `O=C(O)/C=C/c1ccc2c(=O)[nH]c3cc(C(F)(F)F)ccc3n12` [C-10, (E)-3-(4-oxo-7-trifluoromethyl-4,5-dihydropyrrolo[1,2-a]-quinoxalin-1-yl)acrylic acid], the IC50 in assay [1] (setting [4]) was 8 nM; in assay [2] it was 4560 nM.
In the same order, the values of `Cc1c(C(=O)O)sc2nc(Cc3ccc(F)c(C(F)(F)F)c3)[nH]c(=O)c12` [A-9, 2-(4-Fluoro-3-trifluoromethylbenzyl)-5-methyl-4-oxo-3,4-dihydrothieno[2,3-d]pyrimidine-6-carboxylic acid] are 44 nM and 18900 nM.
Take `CC(C)c1ncc2c(=O)[nH]c3cc(C(=O)N(C)C)ccc3n12` [C-2, 1-Isopropyl-N,N-dimethyl-4-oxo-4,5-dihydroimidazo[1,5-a]-quinoxaline-7-carboxamide]: the values for the 50% inhibitory concentration (IC50) in assay [1] (setting [4]) and in assay [2] were 42 nM and above 10000 nM, respectively.
For `Cc1c(C(=O)O)sc2nc(Cc3cccc(C(F)(F)F)c3)[nH]c(=O)c12` [A-6, 5-Methyl-4-oxo-2-(3-trifluoromethylbenzyl)-3,4-dihydrothieno[2,3-d]pyrimidine-6-carboxylic acid], in that order: 34 nM and 22200 nM.
In the same order, the values of `O=C(O)c1cc2c(=O)[nH]c(Cc3cccc(Cl)c3)nc2s1` [A-18, 2-(3-Chlorobenzyl)-4-oxo-3,4-dihydrothieno[2,3-d]-pyrimidine-6-carboxylic acid] are 10 nM and 15800 nM.
Turning to `O=C(O)CCc1ncc2c(=O)[nH]c3cc(Br)ccc3n12` [C-9, 3-(7-Bromo-4-oxo-4,5-dihydroimidazo[1,5-a]quinoxalin-1-yl)-propionic acid], the half-inhibitory concentration (IC50) is 3 nM in assay [1] (setting [4]) and 2810 nM in assay [2].
For `CCc1ccc2c(c1)[nH]c(=O)c1cnc(CCC(=O)O)n12` [C-7, 3-(7-Ethyl-4-oxo-4,5-dihydroimidazo[1,5-a]quinoxalin-1-yl)-propionic acid], in that order: 2 nM and above 10000 nM.
With `Cc1c(C(=O)O)sc2nc(Cc3cccs3)[nH]c(=S)c12` [A-23, 5-Methyl-2-(thiophen-2-ylmethyl)-4-thioxo-3,4-dihydrothieno-[2,3-d]pyrimidine-6-carboxylic acid], the 50% inhibitory concentration (IC50) amounted to 31 nM in assay [1] (setting [4]) and 1540 nM in assay [2].
For the compound `Cc1c(C(=O)O)sc2nc(Cc3cccc(Br)c3)[nH]c(=O)c12` [A-5, 2-(3-Bromobenzyl)-5-methyl-4-oxo-3,4-dihydrothieno[2,3-d]-pyrimidine-6-carboxylic acid], the IC50 in assay [1] (setting [4]) was found to be 24 nM; in assay [2], 4430 nM.
Take `O=C(O)c1cc2c(=O)[nH]c(Cc3ccccc3)nc2s1` [A-17, 2-Benzyl-4-oxo-3,4-dihydrothieno[2,3-d]pyrimidine-6-carboxylic acid]: the IC50 in assay [1] (setting [4]) turned out to be 19 nM; in assay [2] it was 34400 nM.
On to `Cc1c(C(=O)O)sc2nc(CC3=CCCC3)[nH]c(=O)c12` [A-13, 2-(Cyclopent-1-enylmethyl)-5-methyl-4-oxo-3,4-dihydrothieno-[2,3-d]pyrimidine-6-carboxylic acid], for which the IC50 worked out at 28 nM in assay [1] (setting [4]) and 8590 nM in assay [2].
As for `Cc1c(C(=O)O)sc2nc(Cc3cccc(C(F)(F)F)c3)[nH]c(=S)c12` [A-27, 5-Methyl-4-thioxo-2-(3-trifluoromethylbenzyl)-3,4-dihydrothieno[2,3-d]pyrimidine-6-carboxylic acid], the IC50 turned out to be 6 nM in assay [1] (setting [4]) and 3510 nM in assay [2].
In the case of `Cc1c(C(=O)O)sc2nc(Cc3ccccc3)[nH]c(=O)c12` [A-34], the half-maximal inhibitory concentration (IC50) in assay [1] (setting [4]) turned out to be 35 nM; in assay [2] it was 10000 nM.
Take `COc1ccccc1Cc1nc2cc(C(=O)O)ccc2c(=O)[nH]1` [B-4, 2-(2-Methoxybenzyl)-4-oxo-3,4-dihydroquinazoline-7-carboxylic acid]: the concentration for half-maximal inhibition (IC50) in assay [1] (setting [5]) turned out to be 1290 nM.
The same measure, in the same setting: under `O=C(O)c1ccc2c(=O)[nH]c(Cc3ccccn3)nc2c1` [B-6, 4-Oxo-2-(2-pyridylmethyl)-3,4-dihydroquinazoline-7-carboxylic acid] stands 1290 nM.
As for `CC(C)c1ncc2c(=O)[nH]c3cc(Cl)ccc3n12` [C-1 (methanesulfonate)], in assay [3], the “Frequency of occurrence of uninhibited contraction volume change” value was “+0.77 times/min” and the “Residual urine volume volume change” value came out at 0.22 mL.
`O=C(O)c1ccc2c(=O)[nH]c(Cc3cccs3)nc2c1` [B-8, 4-Oxo-2-(2-thienylmethyl)-3,4-dihydroquinazoline-7-carboxylic acid]: the IC50 in assay [1] (setting [5]) worked out at 93 nM.
For the compound `Cn1c(Cc2cccc(Cl)c2)nc2cc(C(=O)O)ccc2c1=O` [B-9, 2-(3-Chlorobenzyl)-3-methyl-4-oxo-3,4-dihydroquinazoline-7-carboxylic acid], the IC50 in assay [1] (setting [5]) is 4660 nM.
Consider `O=C(O)c1ccc2c(=O)[nH]c(Cc3cccnc3)nc2c1` [B-7, 4-Oxo-2-(3-pyridylmethyl)-3,4-dihydroquinazoline-7-carboxylic acid], for which the “Inhibiting Activity inhibition ratio at 1 μM PDE9” value in assay [1] (Table B) was “inhibition ratio = 30%”.
As to `COc1ccc(Cc2nc3cc(C(=O)O)ccc3c(=O)[nH]2)cc1OC` [B-3, 2-(3,4-Dimethoxybenzyl)-4-oxo-3,4-dihydroquinazoline-7-carboxylic acid], the “Inhibiting Activity inhibition ratio at 1 μM PDE9” value in assay [1] (Table B) is listed as “inhibition ratio = 11%”.
